#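 Grown in 96-well plates, cells were treated for 48 hours with each compound at five concentrations. Insufficient inhibition: endpoint recorded as highest concentration tested. At the GI50, growth is halved.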 Calls of active or inactive are those of the source. Rule as the data show it: active = GI50 up to about 1.1 µM and inactive = higher.
# Key:
# Assay in all cases: DTP human tumour cell line panel, 48 h
# [1] = tested on: NCI-H23
# [2] = tested on: T47D
# [3] = tested on: MCF7
# [4] = tested on: BT-549
# [5] = tested on: TK-10
# [6] = tested on: MDA-MB-435
# [7] = tested on: U-251
# [8] = tested on: MOLT-4
# [9] = tested on: OVCAR-5
# [10] = tested on: EKVX
# [11] = tested on: OVCAR-3
# [12] = tested on: KM12
# [13] = tested on: HT-29
# [14] = tested on: SK-OV-3
# [15] = tested on: A549
# [16] = tested on: SNB-19
# [17] = tested on: MDA-N
# [18] = tested on: RXF 393
# [19] = tested on: NCI-H522
# [20] = tested on: SR
Structure (SMILES),GI50 [1],GI50 [2],GI50 [3],GI50 [4],GI50 [5],GI50 [6],GI50 [7],GI50 [8],GI50 [9],GI50 [10],GI50 [11],GI50 [12],GI50 [13],GI50 [14],GI50 [15],GI50 [16],GI50 [17],GI50 [18],GI50 [19],GI50 [20]
CC(=O)/C(=C/N1C(=O)CC(=O)NC1=S)C(=O)Nc1ccccc1C,41.2 µM (inactive),81.3 µM (inactive),60.4 µM (inactive),> 100 µM (inactive),> 100 µM (inactive),66.8 µM (inactive),36 µM (inactive),28 µM (inactive),> 100 µM (inactive),38.5 µM (inactive),36.1 µM (inactive),37.5 µM (inactive),23.5 µM (inactive),> 100 µM (inactive),34.8 µM (inactive),> 100 µM (inactive),49.2 µM (inactive),78.3 µM (inactive),,
CN(CCNC(=O)c1nn(C)c2c1Cc1ccccc1-2)CCNC(=O)c1nn(C)c2c1Cc1ccccc1-2,15.4 µM (inactive),22.5 µM (inactive),11.1 µM (inactive),16.2 µM (inactive),15.7 µM (inactive),15.2 µM (inactive),15.6 µM (inactive),12.4 µM (inactive),26.8 µM (inactive),23.2 µM (inactive),11.4 µM (inactive),19.1 µM (inactive),14 µM (inactive),18.2 µM (inactive),15.8 µM (inactive),15.6 µM (inactive),14.5 µM (inactive),14.8 µM (inactive),16.2 µM (inactive),
CC(C)(CO)CNc1nc(N)nc(Cl)c1N,> 100 µM (inactive),58.5 µM (inactive),> 100 µM (inactive),> 100 µM (inactive),> 100 µM (inactive),> 100 µM (inactive),> 100 µM (inactive),> 100 µM (inactive),> 100 µM (inactive),> 100 µM (inactive),> 100 µM (inactive),> 100 µM (inactive),> 100 µM (inactive),> 100 µM (inactive),> 100 µM (inactive),> 100 µM (inactive),> 100 µM (inactive),> 100 µM (inactive),> 100 µM (inactive),
COc1cc2nc(-c3cccs3)nc(N3C(c4cc(OC)c(OC)c(OC)c4)=NNC(=O)c4ccccc43)c2cc1OC,14 µM (inactive),39 µM (inactive),46.3 µM (inactive),18.9 µM (inactive),22.8 µM (inactive),13.9 µM (inactive),15.8 µM (inactive),> 100 µM (inactive),21.8 µM (inactive),30.8 µM (inactive),6.43 µM (inactive),18.5 µM (inactive),23.3 µM (inactive),71.1 µM (inactive),31.1 µM (inactive),16.4 µM (inactive),,,38 µM (inactive),6.93 µM (inactive)
S=c1[nH]c(Cl)cc2nc(Cl)cn12,5.82 µM (inactive),23.4 µM (inactive),3.13 µM (inactive),9.89 µM (inactive),7.5 µM (inactive),2.09 µM (inactive),4.53 µM (inactive),,,2.25 µM (inactive),2.59 µM (inactive),4.14 µM (inactive),4.66 µM (inactive),2.93 µM (inactive),20.2 µM (inactive),6.04 µM (inactive),1.98 µM (inactive),2.84 µM (inactive),1.57 µM (inactive),
CC(C)(CC#N)c1cc(CC(C)(C)c2cc(CC(C)(C)c3cc(C(C)(C)C4(C)OCCO4)no3)no2)no1,> 100 µM (inactive),9.08 µM (inactive),19.1 µM (inactive),52.5 µM (inactive),51.5 µM (inactive),> 100 µM (inactive),39.8 µM (inactive),> 100 µM (inactive),> 100 µM (inactive),33 µM (inactive),56 µM (inactive),> 100 µM (inactive),> 100 µM (inactive),27.1 µM (inactive),> 100 µM (inactive),21.8 µM (inactive),51.1 µM (inactive),7.89 µM (inactive),24.6 µM (inactive),
COC(=O)c1cc(C#N)[nH]c1-c1ccc(C)s1,34 µM (inactive),25.6 µM (inactive),,30.5 µM (inactive),,91.4 µM (inactive),95.5 µM (inactive),> 100 µM (inactive),47.5 µM (inactive),19.5 µM (inactive),26.9 µM (inactive),92.7 µM (inactive),,55.5 µM (inactive),46.2 µM (inactive),> 100 µM (inactive),> 100 µM (inactive),11.5 µM (inactive),36.1 µM (inactive),63 µM (inactive)
CN(C)c1cc[n+](-c2nc([N-]C(=O)C(F)(F)F)nc3c2ncn3C2CC(O)C(CO)O2)cc1 (centres undefined),> 100 µM (inactive),> 100 µM (inactive),> 100 µM (inactive),> 100 µM (inactive),> 100 µM (inactive),> 100 µM (inactive),> 100 µM (inactive),> 100 µM (inactive),> 100 µM (inactive),> 100 µM (inactive),> 100 µM (inactive),> 100 µM (inactive),> 100 µM (inactive),> 100 µM (inactive),> 100 µM (inactive),> 100 µM (inactive),> 100 µM (inactive),> 100 µM (inactive),> 100 µM (inactive),
NC(=O)NNc1nc(-c2ccccc2)cs1,,> 100 µM (inactive),> 100 µM (inactive),> 100 µM (inactive),> 100 µM (inactive),> 100 µM (inactive),> 100 µM (inactive),> 100 µM (inactive),> 100 µM (inactive),> 100 µM (inactive),> 100 µM (inactive),> 100 µM (inactive),> 100 µM (inactive),> 100 µM (inactive),> 100 µM (inactive),> 100 µM (inactive),,> 100 µM (inactive),> 100 µM (inactive),> 100 µM (inactive)
O=C(Nc1ccc(C(F)(F)F)cc1)NC(F)(F)F,> 100 µM (inactive),> 100 µM (inactive),,> 100 µM (inactive),35.9 µM (inactive),> 100 µM (inactive),> 100 µM (inactive),> 100 µM (inactive),> 100 µM (inactive),> 100 µM (inactive),,,> 100 µM (inactive),> 100 µM (inactive),> 100 µM (inactive),> 100 µM (inactive),> 100 µM (inactive),> 100 µM (inactive),,> 100 µM (inactive)
Cc1cccc(-c2cc(O)c3c(C)ccnc3n2)c1,1.17 µM (inactive),0.826 µM (active),0.319 µM (active),> 100 µM (inactive),> 53.1 µM (inactive),0.0463 µM (active),0.407 µM (active),0.71 µM (active),1.19 µM (inactive),0.935 µM (active),0.256 µM (active),0.209 µM (active),0.339 µM (active),0.53 µM (active),0.71 µM (active),0.447 µM (active),0.0474 µM (active),0.455 µM (active),0.247 µM (active),

# From ChEMBL document CHEMBL1201862, “PubChem BioAssay data set” (2004)
